From US10517839B2, “Mast cell inhibition in diseases of the retina and vitreous” (Cornell University, priority 2008, dated 2019) come the findings set out here.

The subject of data set [1] is isolated perfused diabetic kidneys. Briefly: Flow rate of isolated perfused diabetic kidneys after mast-cell degranulation with 48/80. Particulars: diabetic rat kidney; for vasoconstriction response to 48/80 compared to untreated diabetic kidney (in words): BILA 2157 in perfusate. Here is the method: Mast-cell degranulation was induced with agent 48/80, which will release renin, as the inventors have previously shown, as well as numerous other mediators synthesized and stored by mast cells.
Flow rate (ml/min) was measured under constant perfusion pressure, and is plotted against time (min).
After establishing a constant flow rate, mast-cell degranulation was induced by injecting the 48/80 degranulating agent (300 μg/ml) into the renal artery (at arrow). […] However, the magnitude of this vasoconstriction response was markedly different between the two kidneys. […] Moreover, the return to baseline flow rate was much faster in the BILA2157-treated diabetic kidney (˜8 min) compared to the untreated diabetic kidney (˜40 min). The rate of the initial flow recovery was also greater in the BILA-treated diabetic kidney (0.5 mls/min/min) compared to the untreated diabetic kidney (0.3 mls/min/min). […] In situ, the time it takes to return to normal flow after an acute increase in vascular resistance can profoundly influence the extent of ischemic damage in the kidney.

Data set [2] relates to STZ-induced diabetic rat. Briefly: Retinal whole mounts stained with FITC-griffonia lectin (tortuosity of retinal microvasculature). Particulars: cromolyn-treated diabetic rat, retinal whole mount. It is filed as in vivo.
Method: To induce a model of type-I diabetes, Sprague Dawley and Long-Evans rats were injected with a single dose of streptozotocin (STZ) (60 mg/kg) and maintained for 2 months. Hyperglycemia was confirmed by monitoring blood from tail bleeds. To assess vascular leakage in these diabetic rats, fluorescein retinal angiography was performed weekly over a 2-month time course in the Long-Evans rats. In some experiments, rats were treated with the mast cell stabilizer, Na-cromolyn, topically administered to the eyes. […] This Example describes an analysis of the retinal vasculature from fixed eyes of control (A), diabetic (B), and cromolyn-treated diabetic (C) rats.
For data set [3], the system named is STZ-induced hyperglycemic Long-Evans rats. Briefly: Evan's Blue dye leakage across the blood-retinal barrier. The data set is classed as in vivo, rat. Particulars: Na cromolyn 4% topical, 2 drops twice a day, day 15 post STZ, n=4 rats. The text has this: In order to verify this finding, additional experiments were designed to measure leakiness across the blood-retinal barrier of STZ-induced hyperglycemic Long-Evans rats and to determine whether mast cell stabilization reduces vascular permeability in the hyperglycemic state. Blood glucose levels were monitored weekly to verify the hyperglycemic state. The three groups of animals were as follows: untreated hyperglycemic, cromolyn-treated hyperglycemic, and normo-glycemic (vehicle injected). The hyperglycemic group of rats was treated with the mast cell stabilizer (Na cromolyn, 4%) by topical administration to the eyes (2 drops twice a day), as described above.
Measurements of the Evan's Blue dye concentration across the blood-retinal barrier were performed on day 15 post±STZ-injection. […] 100 μl of the filtrate was then measured in a spectrophotometer at 620 nm, the dye's absorbance maximum. The dye's absorbance minimum, 740 nm, served as a reference wavelength. Dilutions (1:1000 in formamide) of the collected plasma were also measured spectrophotometrically at this time. Sample absorbance measurements were converted to concentrations using absorbance measurements from known concentrations of Evan's Blue in formamide. Dye leakage from blood to retina was calculated as: […]

For data set [4], the system named is STZ-induced diabetic rat model (Long Evans strain). The experiment in a line: Fluorescein angiography of retinal vascular permeability. It is filed as in vivo. The note with it: for leakage/pooling of fluorescein dye out of retinal vessels: 2 drops b.i.d.; for retinal vascular leakiness (fluorescein) over time: STZ Long-Evans rats, 14 and 28 days, n=3, FIG. 14. Here is the method:
To assess vascular leakage in these diabetic rats, fluorescein retinal angiography was performed weekly over a 2-month time course in the Long-Evans rats. In some experiments, rats were treated with the mast cell stabilizer, Na-cromolyn, topically administered to the eyes. The structure of Na-Cromolyn is shown below.
Angiography was performed on an upright fluorescence microscope using a long working distance lens. At the 2-month end point, rats were sacrificed and the eyes were enucleated, dissected free of cornea and extra-orbital connective tissue, and fixed in 4% paraformaldehyde.
The STZ-induced diabetic rat model (Long Evans strain) (40 mg/kg body wt; 28 days) was used for these studies. Fluorescein angiography was performed to assess the permeability of the retinal vasculature in these rats. The pigmented eyes of this strain facilitate angiography. Diabetic rats were treated with the mast cell stabilizer Na-cromolyn and the vascular permeability of these treated rats was compared to diabetic rats that were not treated with Na-cromolyn.
Weekly angiograms were also performed on control rats, STZ-injected, and STZ-injected rats treated with the mast cell stabilizer, Na cromolyn […], topically administered to the eyes (2 drops b.i.d.).
The STZ-induced diabetic rat model (Long Evans strain) (40 mg/kg body wt; 28 days) was used for fluorescein angiography experiments. The pigmented eyes of this strain facilitate angiography. To evaluate the role of mast cells, weekly angiograms were performed on control rats, STZ-injected, and STZ-injected rats treated with the mast cell stabilizer, Na cromolyn (4%), topically administered to the eyes (2 drops b.i.d.).

Data set [5] relates to VEGF. Briefly: VEGF levels in retinas of STZ-injected diabetic rats. It is filed as in vivo, rat. The note with it: for effect on VEGF levels in retina (in words): STZ-induced diabetic rats, Na-Cromolyn 4% topical. Here is the method:
The STZ-induced diabetic rat model (Long Evans strain) (40 mg/kg body wt; 28 days) was used for these studies. To evaluate the effect of a mast cell stabilizer on VEGF levels, STZ-injected rats were treated with the mast cell stabilizer, Na-Cromolyn (4%), topically administered to the eyes (2 drops b.i.d.). VEGF levels were measured in the retinas of STZ-injected diabetic rats treated with Na-Cromolyn and these levels were compared to VEGF levels in the retinas of control rats and in the retinas of STZ-injected diabetic rats that received no Na-Cromolyn. Control rats received no streptozotocin (STZ) and no Na-Cromolyn.

Data set [6] relates to HMC-1 cells. Briefly: Chemotaxis of HMC-1 cells in Corning transwells. The data set is classed as cell-based, human. Particulars: transwell, p<0.05. Here is the method:
Chemotaxis experiments were performed with cultured human mastocytoma cells. HMC-1 cells were plated in Corning transwells consisting of inner and outer wells. The number of mast cells migrating through the insert in response to exogenous histamine±thioperamide, an H3/H4 histamine receptor […], was counted.

The subject of data set [7] is renin. The experiment in a line: Renin activity (ANG I formed, RIA) of HMC-1 cells before and 48 hours after siRNA transfection. The note with it: siRNA 50 nM, 48 hours after transfection. It is filed as cell-based, human. Here is the method:
Renin-specific siRNA duplexes were made based on the coding sequence of human renin between exons 2-8 (Dharmacon) (accession number M26900). The four siRNA duplexes were made against the following renin sequences:
To assess the efficacy of this siRNA approach, the activity of renin protein was measured both before siRNA transfecting and at 48 hours after transfection of the HMC-1 cells.
HMC-1 cells were seeded in 6-well plates. Cells were transfected either with: renin siRNA duplexes (50 nM), scrambled siRNA duplex (50 nM), or treated with the transfection reagent (control), and maintained for 48 hours. An aliquot of cells from each well was counted to estimate the cell number before (initial) and 48 hours after transfection (post). The ability of the siRNA duplexes to silence renin mRNA in the transfected HMC-1 cells was determined by comparing the amount of ANG I formed in the releasate pre- and post-transfection by radioimmunoassay (RIA). […] The amount of ANG I generated on each sample is expressed as pg ANG I formed/ml/hr/10^5 cells. The effect of the siRNA on the amount of renin protein produced by the cell was determined by comparing the initial and final amounts of ANG I formed (renin activity) by the releasates.

“Also recorded” adds a separate entry of the source.

`CC(C)C[C@H](O)[C@H](O)[C@H](CC1CCCCC1)NC(=O)[C@@H](CC(=O)N(CC(=O)N(C)CCc1ccccn1)CC1CCCCC1)Cc1csc(N)n1` [BILA2157]: the “rate of the initial flow recovery” value in data set [1] (100 nM BILA 2157, after 48/80) is given as 0.5 mls/min/min. In addition, the “return to baseline flow rate” value in data set [1] (100 nM BILA 2157, after 48/80) is reported as ~8 min. The “flow rate after 48/80 injection (from baseline 20 ml/min)” value in data set [1] (100 nM BILA 2157 in perfusate, constant perfusion pressure, 48/80 300 μg/ml into renal artery) came to 12 mL/min. In addition, the “effect on flow rate in the absence of a degranulating agent” value in data set [1] (100 nM in perfusate) is “no effect on flow rate”. The “vasoconstriction response to 48/80 compared to untreated diabetic kidney (in words)” value is recorded as “much less vasoconstriction” in data set [1] and “offsets the rate reducing effects” in data set [1] (listed as BILA 2157).

For `O=C([O-])c1cc(=O)c2c(OCC(O)COc3cccc4oc(C(=O)[O-])cc(=O)c34)cccc2o1.[Na+].[Na+]` [Na-cromolyn, Na-Cromolyn], in data set [2], the “tortuosity / abnormal vessel morphology of retinal microvasculature” value was “abnormal changes in the vessel morphology were not observed”. The “Evan's Blue dye leakage across the blood-retinal barrier” value is given as “prevented dye leakage into the retinal space; also recorded: protects against the early phase of increased vascular permeability” in data set [3] and “protective effect against increased vascular permeability” in data set [3] (listed as cromolyn Na). For the same molecule, the “leakage/pooling of fluorescein dye out of retinal vessels” value in data set [4] (Na cromolyn 2% topical, day 28, FIG. 15) is “prevented dye pooling”; in data set [4] (Na cromolyn 4% topical, weekly angiograms), “prevented dye pooling”. Further, the “retinal vascular leakiness (fluorescein) over time” value in data set [4] is listed as “greatly diminished”; in data set [4] (listed as cromolyn), “reduces the leakage of fluorescein from retinal vessels”. Moreover, the “effect on VEGF levels in retina (in words)” value is “reduces vascular endothelial growth factor (VEGF) levels” in data set [5] and “decreases vascular endothelial growth factor (VEGF) levels” in data set [5] (listed as Cromolyn Na). Also, the “VEGF level in retina” value in data set [5] (STZ-injected hyperglycemic rats, Na-Cromolyn 4% topical 2 drops b.i.d., 1 month, n=2) is “about 65 pg VEGF/ml/mg retina”.

As to `NCCc1c[nH]cn1` [histamine], the “number of mast cells migrating through the insert in response to exogenous histamine” value in data set [6] (vs control) is listed as “significantly more migration”.

`S=C(NC1CCCCC1)N1CCC(c2cnc[nH]2)CC1` [thioperamide]: in data set [6], the “migration with histamine alone compared to thioperamide alone or histamine in the presence of thioperamide” value is given as “significantly more migration”.

As to “scrambled control siRNA: negative control, non-specific scrambled siRNA duplex, SEQ ID NO: 9 and 10 (chain 1 AUGUAUUGGCCUGUAUUAGUU; chain 2 CUAAUACAGGCCAAUACAUUU; listed as RNA, chemistry not given here)”, the “change in renin activity / amount of ANG I formed after transfection (in words)” value in data set [7] is reported as “no significant decrease”.
